Data on three molecules can be found in patent US11766415B2, “Reducing triglyceride levels and cortisol levels with pharmaceutical preparations” (GLYKON TECHNOLOGIES GROUP, LLC, priority 2020, dated 2023).

Data set [1] relates to intestinal alpha-glucosidase. The note with it: background statement; in vitro; cited from earlier work.
The next data set has as its target T1, pancreatic alpha-amylase (Homo sapiens, UniProt P04746).
T1 sequence (P04746 16-511): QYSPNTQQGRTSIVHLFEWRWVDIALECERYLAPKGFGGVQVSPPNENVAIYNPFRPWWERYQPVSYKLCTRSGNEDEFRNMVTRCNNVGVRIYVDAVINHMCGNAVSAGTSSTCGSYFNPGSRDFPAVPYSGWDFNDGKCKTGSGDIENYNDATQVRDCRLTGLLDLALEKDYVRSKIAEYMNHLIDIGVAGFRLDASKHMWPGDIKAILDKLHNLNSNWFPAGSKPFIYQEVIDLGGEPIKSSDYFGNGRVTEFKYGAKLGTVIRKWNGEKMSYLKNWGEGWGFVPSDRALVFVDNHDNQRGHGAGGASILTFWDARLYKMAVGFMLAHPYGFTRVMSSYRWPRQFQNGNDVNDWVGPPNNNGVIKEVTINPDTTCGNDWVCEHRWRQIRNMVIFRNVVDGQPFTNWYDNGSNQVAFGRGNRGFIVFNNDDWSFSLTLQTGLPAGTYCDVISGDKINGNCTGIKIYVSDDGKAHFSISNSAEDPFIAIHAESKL
The following applies: background statement; in vitro; cited from earlier work.

The next data set has as its system Ketones. The data set can be described thus: Blood ketones before and 90 minutes after administration. It is filed as in vivo, human. The procedure:
(§1) Subject 5 was a person, weighing approximately 285 pounds and with a normal fasting blood sugar level of 115-120. First, blood was drawn from Subject 5 and levels of various biomolecules were measured. Next, Subject 5 was administered 16.66 ml of the Example 1 formulation on an empty stomach, i.e. wherein with each 16.66 ml the subject received 5,000 mg of the potassium-magnesium (−)-hydroxycitric acid salt, corresponding to 3490 mg of (−)-hydroxycitric acid. 90 minutes after the administration, blood was drawn from Subject 5 and levels of the various biomolecules were remeasured.

Data set [2] concerns blood hemoglobin and oxygen saturation. Description: fNIRS measurement of blood hemoglobin and oxygen saturation after oral administration. The note with it: conclusion, summary over subjects. It is filed as in vivo, human. The procedure: Subjects 1-4 were orally administered the formulation of Example 1. The Subjects were given either one or two administrations of 8.33 ml of the aqueous formulation of Example 1 on an empty stomach, i.e. wherein with each 8.33 ml the subject received 2,500 mg of the potassium-magnesium (−)-hydroxycitric acid salt, corresponding to 1745 mg of (−)-hydroxycitric acid.
fNIRS testing (functional Near Infrared Spectroscopy) was used to measure blood hemoglobin and oxygen saturation. fNIRS can be used to determine real-time peripheral and cerebral hemodynamic responses. For example, relative changes in HbR (deoxygen saturation), HbO (oxygen saturation), and HbT (total hemoglobin concentration), etc. can be determined via application of Modified Beer Lambert Law. HbR, Hb=deoxygen saturation (shown as the thinnest and bottom dashed line in FIG. 1) HbO, HbO2=oxygen saturation (shown as the medium-thickness and middle line in FIG. 1) HbT=total hemoglobin concentration (shown as the darkest, thickest and top line in FIG. 1). On the graphs, time is in seconds.

A further data set has as its system Triglycerides. Description: Blood triglycerides before and 90 minutes after administration. It counts as in vivo, human. The procedure: as §1
(§2) Subject 6 was administered 16.66 ml of the Example 1 formulation on an empty stomach, i.e. wherein with each 16.66 ml the subject received 5,000 mg of the potassium-magnesium (−)-hydroxycitric acid salt, corresponding to 3490 mg of (−)-hydroxycitric acid. 90 minutes after the administration, blood was drawn from Subject 6 and levels of the various biomolecules were remeasured.

Another data set has as its system blood sugar. The data set can be described thus: Blood sugar levels after HCA administration. The following applies: conclusion, summary; in some cases only transient. It is filed as in vivo, human. The procedure: as §1, with “remeasured. […] It is hypothesized that this transient elevation is due to Randall's Cycle. […] In support of this explanation, it is noted that this subject had previously used HCA formulations with the result of keeping their otherwise elevated fasting blood glucose levels in the low- to mid-90s with consistent usage.” for “remeasured.”

Another data set addresses T2, ATP citrate lyase (Homo sapiens, UniProt P53396).
T2 sequence (P53396 1-1101): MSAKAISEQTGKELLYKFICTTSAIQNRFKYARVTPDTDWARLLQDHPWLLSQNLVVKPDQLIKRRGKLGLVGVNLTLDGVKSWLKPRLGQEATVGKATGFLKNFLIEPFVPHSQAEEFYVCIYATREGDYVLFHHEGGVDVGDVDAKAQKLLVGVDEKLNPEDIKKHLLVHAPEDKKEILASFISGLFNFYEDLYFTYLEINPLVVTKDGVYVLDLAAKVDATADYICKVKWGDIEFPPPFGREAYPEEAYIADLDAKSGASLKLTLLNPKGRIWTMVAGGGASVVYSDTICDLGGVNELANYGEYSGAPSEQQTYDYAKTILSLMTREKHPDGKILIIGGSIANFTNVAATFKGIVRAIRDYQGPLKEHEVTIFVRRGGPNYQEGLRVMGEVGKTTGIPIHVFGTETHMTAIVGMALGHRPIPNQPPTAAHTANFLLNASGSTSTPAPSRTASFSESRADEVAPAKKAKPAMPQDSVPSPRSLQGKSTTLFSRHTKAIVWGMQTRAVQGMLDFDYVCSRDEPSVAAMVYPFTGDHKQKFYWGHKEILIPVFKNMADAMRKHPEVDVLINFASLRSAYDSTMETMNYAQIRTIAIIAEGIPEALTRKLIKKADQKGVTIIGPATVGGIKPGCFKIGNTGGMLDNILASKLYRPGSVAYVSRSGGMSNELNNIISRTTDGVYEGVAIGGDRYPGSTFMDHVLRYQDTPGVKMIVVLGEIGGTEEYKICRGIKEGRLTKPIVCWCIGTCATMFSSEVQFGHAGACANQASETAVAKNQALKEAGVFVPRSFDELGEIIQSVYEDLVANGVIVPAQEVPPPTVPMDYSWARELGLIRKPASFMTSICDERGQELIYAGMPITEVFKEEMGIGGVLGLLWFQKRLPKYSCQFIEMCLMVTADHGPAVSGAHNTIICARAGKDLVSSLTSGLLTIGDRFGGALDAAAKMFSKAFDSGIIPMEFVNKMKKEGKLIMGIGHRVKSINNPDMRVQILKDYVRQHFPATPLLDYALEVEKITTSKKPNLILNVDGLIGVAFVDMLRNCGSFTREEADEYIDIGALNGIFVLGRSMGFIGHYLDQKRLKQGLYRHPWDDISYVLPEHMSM
The note with it: background statement; cited from earlier work.

For the next data set, the system named is Cortisol. Description: Blood cortisol before and 90 minutes after administration. It is filed as in vivo, human. The procedure:
as §1, §2

Setting [3] is: conclusion, summary over subjects.
Where [4] appears, read: a subject (Example 3), 5,000 mg salt (3,490 mg (−)-hydroxycitric acid), 90 minutes later.

As for `O=C(O)C[C@](O)(C(=O)O)[C@H](O)C(=O)O` [(2S,3R)-HCA], the “inhibition of intestinal alpha-glucosidase” value in data set [1] was “inhibits”. For the same molecule, on pancreatic alpha-amylase, the “inhibition of pancreatic alpha-amylase” value is on record as “inhibits”.
With `O=C(O)CC(O)(C(=O)O)C(O)C(=O)O` (stereo not drawn) [HCA, 1,2-dihydroxypropane-1,2,3-tricarboxylic acid], the “Ketones Result” value in the data set on Ketones (Subject 5, 5,000 mg salt, empty stomach, 90 mins after administration, before 0.6) is reported as 0.5. For the same molecule, the levels of ketones entry in the data set on Ketones (conclusion, summary) is “relatively stable or slightly lower”. Also, in data set [2], the blood hemoglobin result is listed as “increased” and the oxygen saturation result is listed as “increased”. Besides, the triglycerides entry with Triglycerides (setting [3]) is “decreased”. For the same molecule, the glucose entry with blood sugar is reported as “increased”. At ATP citrate lyase, the “inhibition of ATP citrate lyase” value is listed as “competitive inhibitor”. Besides, the cortisol entry in the data set with Cortisol (setting [3]) was “decreased”.
As for “potassium-magnesium salt of (−)-hydroxycitric acid”, the “decrease in triglyceride level” value in the data set with Triglycerides (setting [4]) stood at 67%. Besides, the “decrease in cortisol level” value with Cortisol (setting [4]) is reported as 20%.
